According to publication PMC11971462, “Generation and validation of a novel multitarget small molecule in glioblastoma” (Cell Death & Disease, 2025):
Values joined by “and” are separate entries in the source; they are usually repeats but may differ in a detail not shown here. Equal values may be shown once.

What was measured:
U87-MG cells [1] = assay: Cell viability with TMZ and DDI199 alone or combined; assay type: cell-based, human; conditions: 72 h
Procedure: (§1) MTT assay was used to study cell viability. For that, cells were seeded at a density of 1.5 × 10^3 cells/well in 96-well plates, incubated overnight and then treated with increasing concentrations of DDI199. After 72 h of treatment, MTT absorbance was measured at 570 nm. GraphPad Prism software was used to analyze results and calculate IC50 values.

U87-MG cells [2] = assay: Subcutaneous U87-MG tumor growth, combined treatment with TMZ; assay type: in vivo, athymic nude-Foxn1nu mice
Procedure: (§2) For tumor growth experiments, 5 × 10^5 U87-MG cells were subcutaneously injected into two bottom flanks of athymic nude-Foxn1^nu mice, and once tumors reached a size of 25-50 mm^3, mice were sorted into groups taking into account gender and tumor size. Afterwards, mice were intratumorally treated with vehicle, SAHA 100 µM or DDI199 100 µM following a schedule of 5 days on and 2 days off. In combined treatment, mice were treated intraperitoneally with 0.5 mg/Kg of TMZ for 5 days and intratumorally following a schedule of 5 days on and 2 days off with vehicle, SAHA 100 µM or DDI199 100 µM. After 4 weeks of treatment, some mice were kept for washout experiment, while the rest were sacrificed and tumors were extracted for immunohistochemistry and to disaggregate for reinjection and oncosphere formation studies. For reinjection assays, 1.5 × 10^5 cells were subcutaneously injected and tumor size was periodically measured. Once tumors reached end-point criteria, they were extracted for immunohistochemical analysis. An external caliper was used for tumor size measurement and the tumor volume was estimated using the formula V = L · W^2 · 0.5 (where L is tumor length and W is the tumor width).

U87-MG tumor cells = assay: Oncosphere formation from disaggregated treated tumors; assay type: cell-based
Procedure: For oncosphere formation assay, cells were cultured in non-treated 48-well plates in DMEM/F12 medium supplemented with EGF and FGF and fresh media was added every 2 days. After 7 days, oncosphere formation was documented and the number of spheres was quantified using Qupath.
as §2, with “An external caliper was used for tumor size measurement and the tumor volume was estimated using the formula V = L · W^2 · 0.5 (where L is tumor length and W is the tumor width).” left out

HDAC6 = HDAC6 (Homo sapiens, UniProt Q9UBN7); assay: HDAC6 enzyme inhibition; assay type: biochemical; conditions: read-out: HDAC inhibition IC50 HDAC6
Sequence of HDAC6 (Q9UBN7 whole entry): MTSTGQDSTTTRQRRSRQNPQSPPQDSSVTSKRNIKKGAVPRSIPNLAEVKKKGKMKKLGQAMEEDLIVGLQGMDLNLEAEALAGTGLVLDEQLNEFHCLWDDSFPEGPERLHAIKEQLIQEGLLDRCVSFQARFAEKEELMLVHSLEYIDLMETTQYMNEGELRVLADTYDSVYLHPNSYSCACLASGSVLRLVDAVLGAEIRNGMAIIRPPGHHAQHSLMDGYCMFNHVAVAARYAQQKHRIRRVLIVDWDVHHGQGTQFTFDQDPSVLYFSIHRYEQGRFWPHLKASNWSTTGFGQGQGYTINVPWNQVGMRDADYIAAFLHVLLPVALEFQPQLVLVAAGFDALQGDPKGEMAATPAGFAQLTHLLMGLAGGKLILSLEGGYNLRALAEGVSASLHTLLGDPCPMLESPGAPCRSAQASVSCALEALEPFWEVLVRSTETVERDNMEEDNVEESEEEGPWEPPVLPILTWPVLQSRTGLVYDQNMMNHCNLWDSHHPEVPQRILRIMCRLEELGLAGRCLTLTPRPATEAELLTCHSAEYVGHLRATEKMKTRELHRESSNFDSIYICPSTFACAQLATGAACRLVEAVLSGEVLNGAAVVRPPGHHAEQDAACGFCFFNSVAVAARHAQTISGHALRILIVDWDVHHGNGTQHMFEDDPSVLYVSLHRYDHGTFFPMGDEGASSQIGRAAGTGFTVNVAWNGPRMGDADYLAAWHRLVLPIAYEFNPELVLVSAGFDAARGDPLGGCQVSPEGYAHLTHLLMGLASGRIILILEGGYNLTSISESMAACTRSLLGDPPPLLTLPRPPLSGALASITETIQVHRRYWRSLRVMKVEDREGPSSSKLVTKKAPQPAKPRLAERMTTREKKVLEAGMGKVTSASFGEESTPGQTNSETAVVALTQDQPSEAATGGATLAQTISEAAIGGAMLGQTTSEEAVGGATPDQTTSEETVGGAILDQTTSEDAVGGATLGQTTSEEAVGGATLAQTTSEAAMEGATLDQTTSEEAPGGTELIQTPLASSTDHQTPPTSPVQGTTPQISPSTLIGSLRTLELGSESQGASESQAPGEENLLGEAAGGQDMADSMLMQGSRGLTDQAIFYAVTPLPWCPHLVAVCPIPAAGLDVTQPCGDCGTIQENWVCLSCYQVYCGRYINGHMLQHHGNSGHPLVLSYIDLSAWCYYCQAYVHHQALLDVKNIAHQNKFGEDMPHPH
Procedure: The inhibitory capacity of DDI199 on HDACs was studied as previously described. The capacity of DDI199 to inhibit MAOs was studied by mimicking the reaction occurring in cells. Briefly, inhibitor solution containing 10 µM of DDI199 or reference compound was incubated for 30 minutes at 37 °C together with the enzyme solution, containing either recombinant hMAO-A (Sigma-Aldrich) at 0.5 U/mL or hMAO-B (Sigma-Aldrich) at 1.5 U/mL. 200 U/mL horseradish peroxidase (Sigma-Aldrich), 20 mM Ampliflu Red (Sigma-Aldrich) and 100 mM tyramine hydrochloride (Sigma-Aldrich) were then added and absorbance at 570 nm was measured every 5 minutes for 30 minutes. Percentage of inhibition was estimated from these values.

GNS166 cells = assay: Western blot of HDAC6, HDAC1, acetyl α-tubulin, acetyl H3; assay type: cell-based, human; conditions: U87-MG and glioma stem cells (GNS166)
Procedure: (§3) Protein lysates were resolved using sodium dodecyl sulfate-polyacrylamide gel electrophoresis. Primary antibodies against HDAC1 (Ab109411, abcam), HDAC6 (7558S, Cell Signaling), acetyl H3 (9649, Cell Signaling), acetyl α-tubulin (Ab24610, abcam), acetylated-Lysine (9441, Cell Signaling) and β-actin (A5441, Sigma-Aldrich) were used. Membranes were then incubated with the corresponding anti-rabbit (7074S, Cell Signaling) or anti-mouse (7076S, Cell Signaling) secondary antibody conjugated to horseradish peroxidase (HRP), and NOVEX ECL Chemi Substrate (ThermoFisher) or SuperSignal West Femto Maximum Sensitivity Substrate (ThermoFisher) was used for protein detection by iBright imaging system.

U87-MG cells [3] = assay: as above; assay type: cell-based, human
Procedure: as §3

U87-MG cells [4] = assay: Washout experiment after treatment; assay type: in vivo, athymic nude-Foxn1nu mice
Procedure: as §2

glioma cells = assay: MTT cell viability, summary for glioma cells; assay type: cell-based; conditions: Homo sapiens, 72 h, summary statement, read-out: IC50 cell viability in different glioma cells
Procedure: as §1

[5] = system: GNS179 patient-derived glioma stem cells; assay: MTT cell viability; assay type: cell-based; conditions: Homo sapiens, 72 h
Procedure: as §1

[6] = system: gastric cancer MKN45 cells; assay: MTT cell viability; assay type: cell-based; conditions: Homo sapiens, MKN-45, 72 h
Procedure: as §1

[7] = system: Normal Human Astrocytes (NHA); assay: MTT cell viability; assay type: cell-based; conditions: Astrocyte, 72 h
Procedure: as §1

[8] = system: GNS166 patient-derived glioma stem cells; assay: MTT cell viability; assay type: cell-based; conditions: Homo sapiens, 72 h
Procedure: as §1

[9] = system: lung cancer NCI-H1299 cells; assay: MTT cell viability; assay type: cell-based; conditions: Homo sapiens, 72 h
Procedure: as §1

U87-MG glioma cells = assay: MTT cell viability; assay type: cell-based; conditions: Homo sapiens, U-87 MG, 72 h
Procedure: as §1

U251-MG glioma cells = assay: MTT cell viability; assay type: cell-based; conditions: Homo sapiens, U-251, 72 h
Procedure: as §1

[10] = system: pancreatic cell line RWP1; assay: MTT cell viability; assay type: cell-based; conditions: Homo sapiens, 72 h
Procedure: as §1

[11] = In vivo toxicity assay (body weight, organ macroscopy); design: species or system athymic nude-Foxn1nu mice; conditions: intraperitoneal 15 mg/mL, 5 times per week for 4 weeks
Procedure: 15 mg/mL of DDI199 or vehicle (DMSO) were intraperitoneally injected in athymic nude-Foxn1^nu mice following a schedule of 5 days on and 2 days off and changes in body weight were measured to assess the potential toxicity of the MSM. At the end-point macroscopic analysis of the different organs was done.

[12] = TMZ 0.5 mg/kg ip + DDI199 100 µM intratumoral

SMILES: C#CCN(Cc1cc2cc(OCCCN3CCCCC3)ccc2n1S(=O)(=O)c1ccccc1)C(=O)CCCCCCC(=O)NO [DDI199]
- Cytotoxicity in combination with TMZ (U87-MG cells [1]; 0.5 µM DDI199 + 250 µM TMZ): over 70%
- Cell viability, single agent (U87-MG cells [1]; 250 µM TMZ or 0.5 µM DDI199 alone): reduced cell viability
- Mean tumor volume, combined with TMZ (U87-MG cells [2]; TMZ 0.5 mg/kg ip 5 days + 100 µM intratumoral, end-point, controls 600 mm^3): 115 mm^3
- Reduction in final tumor volume versus TMZ + SAHA, combined with TMZ (U87-MG cells [2]; [12]): ~70%
- Reduction in final tumor volume versus controls, combined with TMZ (U87-MG cells [2]; [12]): 80%
- Reduction in tumor volume versus TMZ alone, combined with TMZ (U87-MG cells [2]; [12]): 70%
- Reduction in tumor weight versus TMZ + SAHA, combined with TMZ (U87-MG cells [2]; [12]): 47%
- Reduction in tumor weight versus TMZ alone, combined with TMZ (U87-MG cells [2]; [12]): 65%
- Reduction in tumor weight versus controls, combined with TMZ (U87-MG cells [2]; [12]): 65%
- Oncospheres formed by cells from treated tumors (U87-MG tumor cells; GSC medium, 7 days): fewer oncospheres
- Oncospheres from treated tumors, combined with TMZ (U87-MG tumor cells; TMZ plus DDI199 versus control and TMZ-treated cells): significantly lower number of oncospheres
- IC50 (HDAC6): 0.095 µM and 0.09 µM
- acetylated α-tubulin and acetylated H3 versus reference inhibitors (GNS166 cells): higher acetylated α-tubulin and acetylated H3 increase than SAHA and Tubastatin A
- acetylated H3 level (U87-MG cells [3]; U87-MG, 0.5, 1 and 10 µM): increased their levels with increasing concentrations
- acetylated α-tubulin level (U87-MG cells [3]; U87-MG, 0.5, 1 and 10 µM): increased their levels with increasing concentrations
- HDAC1 protein level (U87-MG cells [3]; U87-MG, western blot): decrease
- HDAC6 protein level (U87-MG cells [3]; U87-MG, western blot): did not alter
- Survival in washout experiment, combined with TMZ (U87-MG cells [4]; TMZ + DDI199 versus control, TMZ alone and TMZ plus SAHA): extended survival
- Time to end-point volume after washout (U87-MG cells [4]; after 4 weeks treatment, controls 10 days): 20 days
- Survival in washout experiment (U87-MG cells [4]; compared to controls and SAHA (p = 0.05)): significantly longer survival
- IC50 (glioma cells): < 5 µM
- IC50 [5]: 5.28 µM
- IC50 [6]: 2.61 µM
- IC50 [7]: 7 µM
- IC50 [8]: 13 µM
- IC50 [9]: 3.33 µM
- IC50 (U87-MG glioma cells): 3.23 µM
- IC50 (U251-MG glioma cells): 5.45 µM
- IC50 [10]: 0.88 µM
- Body weight of animals compared to controls [11]: did not significantly affect the body weight
- Macroscopic analysis of organs at end-point [11]: did not observe any difference
